According to ChEMBL document CHEMBL5370624 (J Med Chem, 2023):
pEC50: −log10 of the molar value. Active and inactive are the calls of the source. The rule behind the calls is not given here.

Tests used:
Toll-like receptor 4 [1] = target: T1, Toll-like receptor 4 (Homo sapiens, UniProt O00206); test: Agonist activity at human TLR4 in human HEK-Blue hTLR4 cells assessed as NF-kappaB activation incubated for 48 hrs by SEAP reporter gene based Quanti-blue assay; format: cell-based
Toll-like receptor 4 [2] = target: T2, Toll-like receptor 4 (Mus musculus, UniProt Q9QUK6); test: Agonist activity at TLR4 in mouse RAW264.7 cells assessed as induction of MIP-1beta release incubated for 24 hrs by ELISA; format: cell-based
T2 sequence (Q9QUK6 whole entry): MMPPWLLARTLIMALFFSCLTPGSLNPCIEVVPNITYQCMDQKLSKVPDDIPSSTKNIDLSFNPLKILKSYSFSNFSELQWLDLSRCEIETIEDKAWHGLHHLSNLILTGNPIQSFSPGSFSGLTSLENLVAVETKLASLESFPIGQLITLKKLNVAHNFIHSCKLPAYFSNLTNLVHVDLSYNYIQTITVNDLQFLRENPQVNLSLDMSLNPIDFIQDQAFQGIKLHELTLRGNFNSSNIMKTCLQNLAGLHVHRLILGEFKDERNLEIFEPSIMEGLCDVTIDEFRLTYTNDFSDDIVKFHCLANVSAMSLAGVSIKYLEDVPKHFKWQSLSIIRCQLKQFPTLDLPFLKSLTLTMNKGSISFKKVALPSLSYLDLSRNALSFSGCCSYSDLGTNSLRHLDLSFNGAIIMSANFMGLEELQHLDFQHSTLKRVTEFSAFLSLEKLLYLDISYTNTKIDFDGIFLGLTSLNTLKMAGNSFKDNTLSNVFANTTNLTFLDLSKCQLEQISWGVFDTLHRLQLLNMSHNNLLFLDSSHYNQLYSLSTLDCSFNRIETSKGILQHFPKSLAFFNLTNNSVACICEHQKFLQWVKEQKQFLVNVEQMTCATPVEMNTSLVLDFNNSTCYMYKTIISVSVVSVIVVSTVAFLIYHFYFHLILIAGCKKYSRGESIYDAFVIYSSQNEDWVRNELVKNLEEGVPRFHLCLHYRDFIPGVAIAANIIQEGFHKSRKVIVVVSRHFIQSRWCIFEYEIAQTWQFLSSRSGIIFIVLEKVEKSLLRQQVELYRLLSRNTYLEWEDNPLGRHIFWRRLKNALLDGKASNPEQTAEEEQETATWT

[3] = Aqueous stability of the compound assessed as drug degradation at 40 degreeC and measured after 3 months by LC-MS analysis; format: physicochemical; conditions: buffer, 2190 h
Toll-like receptor 4 [4] = target: T2, Toll-like receptor 4; test: Agonist activity at mouse TLR4 in human HEK-Blue mTLR4 cells assessed as NF-kappaB activation incubated for 48 hrs by SEAP reporter gene based Quanti-blue assay; format: cell-based
Toll-like receptor 4 [5] = target: T1, Toll-like receptor 4; test: Agonist activity at TLR4 in human MONO-MAC-6 cells assessed as induction of MIP-1beta release incubated for 24 hrs by ELISA; format: cell-based
Toll-like receptor 4 [6] = target: T1, Toll-like receptor 4; test: Agonist activity at TLR4 in human PBMC cells assessed as induction of MIP-1beta release incubated for 20 hrs by ELISA; format: cell-based
Toll-like receptor 4 [7] = target: T1, Toll-like receptor 4; test: Agonist activity at TLR4 in human PBMC cells assessed as induction of TNFalpha release incubated for 20 hrs by ELISA; format: cell-based
Toll-like receptor 4 [8] = target: T1, Toll-like receptor 4; test: Agonist activity at TLR4 in human PBMC cells assessed as induction of IL-1beta release incubated for 20 hrs by ELISA; format: cell-based
Toll-like receptor 4 [9] = target: T1, Toll-like receptor 4; test: Agonist activity at TLR4 in human PBMC cells assessed as induction of RANTES release incubated for 20 hrs by ELISA; format: cell-based
Mus musculus [10] = species on record: Mus musculus; test: Immuno-adjuvant activity in H3N2-split A/Victoria/210/2009 influenza virus-immunized BALB/c mouse model assessed as increase in influenza specific serum IgG titer level at 0.001 to 0.1 ug,IM and measured after 14 days by ELISA; format: functional, organism-based; conditions: dose 0.001-0.1 µg, time 14.0 day
Mus musculus [11] = species on record: Mus musculus; test: Immuno-adjuvant activity in H3N2-split A/Victoria/210/2009 influenza virus-immunized BALB/c mouse model assessed as increase in influenza specific serum IgG1 titer level at 0.001 to 0.1 ug,IM and measured after 14 days by ELISA; format: functional, organism-based; conditions: dose 0.001-0.1 µg, time 14.0 day
Mus musculus [12] = test: Immuno-adjuvant activity in H3N2-split A/Victoria/210/2009 influenza virus-immunized BALB/c mouse model assessed as increase in influenza specific serum IgG titer level at 0.001 to 0.1 ug,IM administered on day 0 and 14 and measured after 28 days by ELISA; format: functional, organism-based; conditions: dose 0.001-0.1 µg, time 28.0 day
Mus musculus [13] = test: Immuno-adjuvant activity in H3N2-split A/Victoria/210/2009 influenza virus-immunized BALB/c mouse model assessed as increase in influenza specific serum IgG1 titer level at 0.001 to 0.1 ug,IM administered on day 0 and 14 and measured after 28 days by ELISA; format: functional, organism-based; conditions: dose 0.001-0.1 µg, time 28.0 day
Mus musculus [14] = test: Immuno-adjuvant activity in H3N2-split A/Victoria/210/2009 influenza virus-immunized BALB/c mouse model assessed as increase in influenza specific serum IgG2a titer level at 0.001 to 0.1 ug,IM administered on day 0 and 14 and measured after 28 days by ELISA; format: functional, organism-based; conditions: dose 0.001-0.1 µg, time 28.0 day
[15] = Toxicity in H3N2-split A/Victoria/210/2009 influenza virus-immunized BALB/c mouse model assessed as abnormality at 0.001 to 0.1 ug,IM administered on day 0 and 14 and measured after 28 days; conditions: in vivo, 672 h, dose 0.001-0.1 µg, time 28 day
[16] = Toxicity in H3N2-split A/Victoria/210/2009 influenza virus-immunized BALB/c mouse model assessed as reactogenicity at 0.001 to 0.1 ug,IM administered on day 0 and 14 and measured after 28 days; conditions: in vivo, 672 h, dose 0.001-0.1 µg, time 28 day
Mus musculus [17] = test: Immuno-adjuvant activity in H3N2-A/HK/68 influenza virus-immunized BALB/c mouse model assessed as increase in survival rate at 10 ug,INH administered 48hrs prior to influenza challenge and measured after 18 days; format: functional; conditions: dose 10 µg, time 18 day
Mus musculus [18] = test: Immuno-adjuvant activity in H3N2-A/HK/68 influenza virus-immunized BALB/c mouse model assessed as increase in survival rate at 1 ug,INH administered 48hrs prior to influenza challenge and measured after 18 days; format: functional; conditions: dose 1 µg, time 18 day
[19] = Toxicity in H3N2-A/HK/68 influenza virus-immunized BALB/c mouse model assessed as body weight change at 1 to 10 ug,INH administered 48hrs prior to influenza challenge and measured after 18 days; conditions: in vivo, inhaled_or_intranasal, 432 h, dose 1-10 µg, time 18 day
[20] = Toxicity in H3N2-A/HK/68 influenza virus-immunized BALB/c mouse model assessed as disease index at 1 to 10 ug,INH administered 48hrs prior to influenza challenge and measured after 18 days; conditions: in vivo, inhaled_or_intranasal, 432 h, dose 1-10 µg, time 18 day
[21] = Toxicity in H3N2-A/HK/68 influenza virus-immunized BALB/c mouse model assessed as change in body temperature at 1 to 10 ug,INH administered 48hrs prior to influenza challenge and measured after 18 days; conditions: in vivo, inhaled_or_intranasal, 432 h, dose 1-10 µg, time 18 day

T1 sequence (O00206 whole entry): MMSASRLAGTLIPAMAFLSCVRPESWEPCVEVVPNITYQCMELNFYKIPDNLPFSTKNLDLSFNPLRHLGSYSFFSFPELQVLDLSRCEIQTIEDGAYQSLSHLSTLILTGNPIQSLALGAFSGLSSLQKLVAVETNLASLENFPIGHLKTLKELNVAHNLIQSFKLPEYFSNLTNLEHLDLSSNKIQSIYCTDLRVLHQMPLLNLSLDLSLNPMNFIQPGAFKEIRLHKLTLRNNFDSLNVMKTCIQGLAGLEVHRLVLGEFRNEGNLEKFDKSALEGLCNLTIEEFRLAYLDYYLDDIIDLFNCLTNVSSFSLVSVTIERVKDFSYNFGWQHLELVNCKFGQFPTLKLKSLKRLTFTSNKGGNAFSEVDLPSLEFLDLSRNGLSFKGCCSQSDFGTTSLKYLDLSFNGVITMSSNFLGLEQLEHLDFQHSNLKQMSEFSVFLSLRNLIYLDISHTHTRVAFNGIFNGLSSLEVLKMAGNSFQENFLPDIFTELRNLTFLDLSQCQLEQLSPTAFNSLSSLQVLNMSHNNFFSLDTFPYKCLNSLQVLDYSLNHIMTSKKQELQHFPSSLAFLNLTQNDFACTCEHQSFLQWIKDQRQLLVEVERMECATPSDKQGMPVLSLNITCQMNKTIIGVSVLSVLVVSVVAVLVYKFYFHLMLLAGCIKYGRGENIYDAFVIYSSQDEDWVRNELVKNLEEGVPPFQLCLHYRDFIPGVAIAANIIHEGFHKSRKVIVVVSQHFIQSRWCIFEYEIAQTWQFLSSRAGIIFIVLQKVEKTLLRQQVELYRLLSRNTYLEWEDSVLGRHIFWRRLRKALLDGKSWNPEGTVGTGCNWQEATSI

SMILES: CCCCCCCCCCC[C@H](CC(=O)N[C@H]1[C@H](OC[C@H](NC(=O)C[C@@H](CCCCCCCCCCC)OCCCCCCCCCC)C(=O)O)O[C@H](CO)[C@@H](OP(=O)(O)O)[C@@H]1OC(=O)C[C@@H](CCCCCCCCCCC)OCCCCCCCCCC)OCCCCCCCCCC
- pEC50 (Toll-like receptor 4 [1]): 9.03
- pEC50 (Toll-like receptor 4 [2]): 10.82
- Stability [3]: Stable
- pEC50 (Toll-like receptor 4 [4]): 11.30
- pEC50 (Toll-like receptor 4 [5]): 10.22
- pEC50 (Toll-like receptor 4 [6]): 11.00
- pEC50 (Toll-like receptor 4 [7]): 9.59
- pEC50 (Toll-like receptor 4 [8]): 10.55
- pEC50 (Toll-like receptor 4 [9]): 10.85
- Activity (Mus musculus [10]): Dose-Dependent Effect
- Activity (Mus musculus [11]): Dose-Dependent Effect
- Activity (Mus musculus [12]): Active
- Activity (Mus musculus [13]): Active
- Activity (Mus musculus [14]): Active
- Activity [15]: Non-Toxic
- Activity [16]: Non-Toxic
- Survival (Mus musculus [17]): 100%
- Survival (Mus musculus [18]): 60%
- Activity [19]: Non-Toxic
- Activity [20]: Non-Toxic
- Activity [21]: Non-Toxic
